{"source": "patent US9663536B2", "about": "“Inhibitors of human immunodeficiency virus replication” (priority 2013, dated 2017)", "key": {"[1]": {"details": "rcm bond, 20-membered ring, Hoveyda-Grubbs II (10 mol%), DCE, 70.0 °C"}, "[2]": {"tested_on": "recombinant NL-Rluc virus", "assay": "Inhibition of HIV replication (NL-Rluc virus in MT-2 cells, luciferase readout)", "format": "cell-based", "details": "Human immunodeficiency virus 1, MT2, 120 h"}, "[3]": {"details": "from C=CCCc1ccccc1Cc1cnc(-c2cc3nc(C)c([C@H](OC(C)(C)C)C(=O)OCC)c(N4CCC(C)(OCC=C)CC4)n3n2)s1, rcm bond, Hoveyda-Grubbs II (7 mol%), DCE, 3.67 mM, 70.0 °C, 2.0 h"}}, "note": "Like-named read-outs stand apart in the source and are kept apart here."}
{"smiles": "CCOC(=O)[C@@H](OC(C)(C)C)c1c(C)nc2cc3nn2c1N1CCC(C)(CC1)OCC=CCOc1ccccc1Cc1cnc-3s1", "values": [{"measurement": "ring closure, isolated yield", "setting": "[1]; from C=CCOc1ccccc1Cc1cnc(-c2cc3nc(C)c([C@H](OC(C)(C)C)C(=O)OCC)c(N4CCC(C)(OCC=C)CC4)n3n2)s1, 1.64 mM, 2.0 h", "value": 76, "unit": "%"}]}
{"smiles": "COC(=O)[C@@H](OC(C)(C)C)c1c(C)nc2cc3nn2c1N1CCC(C)(CC1)OC/C=C/COc1ccccc1Cc1cnn-3c1", "values": [{"measurement": "ring closure, isolated yield", "setting": "[1]; from C=CCOc1ccccc1Cc1cnn(-c2cc3nc(C)c([C@H](OC(C)(C)C)C(=O)OC)c(N4CCC(C)(OCC=C)CC4)n3n2)c1, 1.2 mM, 3.0 h", "value": 74, "unit": "%"}]}
{"smiles": "COC(=O)Cc1c(C)nc2cc3nn2c1N1CCC(C)(CC/C=C/COc2ccccc2Cn2cc-3cn2)CC1", "values": [{"measurement": "ring closure, isolated yield", "setting": "[1]; from C=CCCC1(C)CCN(c2c(CC(=O)OC)c(C)nc3cc(-c4cnn(Cc5ccccc5OCC=C)c4)nn23)CC1, 5.02 mM, 1.0 h", "value": 63, "unit": "%"}]}
{"smiles": "Cc1nc2cc3nn2c(c1[C@H](OC(C)(C)C)C(=O)O)N1CCC(C)(CC1)OC/C=C/CCc1cccc(c1)Cc1cnc-3s1", "note": "[Example 3, (2S)-2-(tert-Butoxy)-2-[(22E)-4,26-dimethyl-25-oxa-32-thia-1,5,7,8,11-pentaazahexacyclo[24.2.2.1^6,9.1^10,13.1^15,19.0^2,7]tritriaconta-2,4,6(33),8,10,12,15(31),16,18,22-decaen-3-yl]acetic acid]", "values": [{"measurement": "EC50", "setting": "[2]", "value": 3, "unit": "nM"}]}
{"smiles": "Cc1nc2cc3nn2c(c1[C@H](OC(C)(C)C)C(=O)O)N1CCC(C)(CC1)OC/C=C/COc1ccccc1Cc1cnc-3o1", "note": "[Example 10, (2S)-2-(tert-Butoxy)-2-[(23E)-4,27-dimethyl-21,26,32-trioxa-1,5,7,8,11-pentaazahexacyclo[25.2.2.1^6,9.1^10,13.0^2,7.0^15,20]tritriaconta-2,4,6(33),8,10,12,15 (20),16,18,23-decaen-3-yl]acetic acid]", "values": [{"measurement": "EC50", "setting": "[2]", "value": 2, "unit": "nM"}]}
{"smiles": "Cc1nc2cc3nn2c(c1[C@H](OC(C)(C)C)C(=O)O)N1CCC(C)(CCCCCCOc2ccccc2Cc2cnn-3c2)CC1", "note": "[Example 36, (2S)-2-(tert-Butoxy)-2-{4,28-dimethyl-21-oxa-1,5,7,8,10,11-hexaazahexacyclo[26.2.2.1^6,9.1^10,13.0^2,7.0^15,20]tetratriaconta-2,4,6(34),8,11,13(33),15(20),16,18-nonaen-3-yl}acetic acid]", "values": [{"measurement": "EC50", "setting": "[2]", "value": 14, "unit": "nM"}]}
{"smiles": "CCOC(=O)[C@@H](OC(C)(C)C)c1c(C)nc2cc3nn2c1N1CCC(C)(CC1)OCC=CCCc1ccccc1Cc1cnc-3s1", "values": [{"measurement": "ring closure, yield after HPLC", "setting": "[3]; 19-membered ring", "value": 8.65, "unit": "%"}, {"measurement": "ring closure, yield after HPLC", "setting": "[3]; 20-membered ring", "value": 19.7, "unit": "%"}]}
